# Assay results: article PMC9170034 (Proceedings of the National Academy of Sciences of the …, 2022)
# Where two headings read alike, the source gives them in different places.
# How the values were obtained:
# OXA-51 = tested on: OXA-51; design: method as in earlier work; settings: periplasmic extracts; nitrocefin; 5 min pre-incubation; ref 2 (Papp-Wallace et al., 2019); cited from earlier work
# SHV-1 = settings: periplasmic extracts; nitrocefin; 5 min pre-incubation; ref 2 (Papp-Wallace et al., 2019); cited from earlier work
# OXA-10 [1] = target: T1, OXA-10 (Pseudomonas aeruginosa, UniProt P14489); test: Kiapp and kinact/K determination in competition with FC-5; format: biochemical; settings: OXA-10 (50 nM), FC-5 (5 µM); pH 7.5; 10 mM NaHCO3; read-out: Kiapp, OXA-10
# T1 construct: His tag (N); made in house
# T1 sequence (P14489 20-266): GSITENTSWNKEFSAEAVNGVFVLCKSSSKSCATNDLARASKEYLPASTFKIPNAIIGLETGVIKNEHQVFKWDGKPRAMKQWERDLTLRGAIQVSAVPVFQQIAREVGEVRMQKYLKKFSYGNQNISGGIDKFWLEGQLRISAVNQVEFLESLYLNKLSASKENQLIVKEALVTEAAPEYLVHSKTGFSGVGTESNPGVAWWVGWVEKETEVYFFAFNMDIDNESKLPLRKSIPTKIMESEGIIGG
# Experimental: Kinetic analyses were performed (at least in triplicate) using either BMG LABTECH PHERAstar or CLARIOstar plate readers. Unless stated otherwise, reactions were in 50 mM phosphate buffer, pH 7.5, containing 0.01% (vol/vol) aqueous Triton X-100, and, in the case of OXA-10, 10 mM sodium bicarbonate. Assays were performed in competition with either the fluorescent reporter substrate FC-5 ([35]), using black-walled microplates (Greiner Bio-One μCLEAR, PS, F-bottom, black), and measuring fluorescence intensity (ʎex = 380 nm and ʎem = 460 nm), or with nitrocefin (NCF), using ultraviolet transparent plates (Greiner Bio-One UV-Star, COC, F-bottom, clear) and measuring absorbance (ʎAbs = 486 nm, using path-length correction). Nonlinear regression analysis was performed with Prism 5 (GraphPad Software).
# IC50s were determined as reported ([35]). TEM-116 (1 nM), AmpCEC (500 pM), or OXA-10 (250 pM) were incubated with varied inhibitor concentrations at room temperature (r.t.) for the indicated time then assayed using 5 µM FC-5. The apparent inhibitory constant Kiapp and the second-order rate constant kinact/K (or k2/K) were determined using reported methods ([60]). SBLs were reacted with the reporter substrate in the presence of varied inhibitor concentrations. Reactions were initiated by SBL addition and immediately monitored for 60 to 120 s (until they plateaued). […]
# TEM-116 = TEM-116 (Escherichia coli, UniProt P62593, A182V/V82I); test: SPE-MS study of prolonged reaction of SBL with penam sulfones; settings: prolonged incubation (8 h) with 100 equiv.
# Experimental: Mass spectra were acquired in the positive ion mode using an integrated autosampler/SPE RapidFire365 system (Agilent Technologies) coupled to an Agilent 6550 Accurate Mass QTOF spectrometer. After the indicated time, 50 μL of the solution was loaded onto a C4 SPE cartridge (Agilent Technologies), then washed with buffer A (100% [vol/vol] water, 0.1% [vol/vol] formic acid), then eluted into the mass spectrometer in buffer B (15% [vol/vol] water, 85% [vol/vol] acetonitrile, 0.1% [vol/vol] formic acid). The cartridge was reequilibrated in buffer A in between samples. Data were analyzed using MassHunter Qualitative Analysis software V.7 (Agilent Technologies) using the maximum entropy deconvolution algorithm.
# AmpC E. cloacae = tested on: AmpC E. cloacae; design: method as in earlier work; settings: periplasmic extracts; nitrocefin; 5 min pre-incubation; ref 2 (Papp-Wallace et al., 2019); cited from earlier work
# KPC-3 = tested on: KPC-3; design: method as in earlier work; settings: periplasmic extracts; nitrocefin; 5 min pre-incubation; ref 2 (Papp-Wallace et al., 2019); cited from earlier work
# CTX-M-14 = tested on: CTX-M-14; design: method as in earlier work; settings: periplasmic extracts; nitrocefin; 5 min pre-incubation; ref 2 (Papp-Wallace et al., 2019); cited from earlier work
# SHV (R244S) = tested on: SHV (R244S); design: method as in earlier work; settings: periplasmic extracts; nitrocefin; 5 min pre-incubation; ref 2 (Papp-Wallace et al., 2019); cited from earlier work
# OXA-1 = tested on: OXA-1; design: method as in earlier work; settings: periplasmic extracts; nitrocefin; 5 min pre-incubation; ref 2 (Papp-Wallace et al., 2019); cited from earlier work
# CTX-M-15 = tested on: CTX-M-15; design: method as in earlier work; settings: periplasmic extracts; nitrocefin; 5 min pre-incubation; ref 2 (Papp-Wallace et al., 2019); cited from earlier work
# CMY-2 = tested on: CMY-2; design: method as in earlier work; settings: periplasmic extracts; nitrocefin; 5 min pre-incubation; ref 2 (Papp-Wallace et al., 2019); cited from earlier work
# OXA-58 = tested on: OXA-58; design: method as in earlier work; settings: periplasmic extracts; nitrocefin; 5 min pre-incubation; ref 2 (Papp-Wallace et al., 2019); cited from earlier work
# OXA-10 [2] = target: T1, OXA-10; test: IC50/pIC50 determination with fluorescent reporter substrate FC-5 after pre-incubation; format: biochemical; settings: Table S1, read-out: pIC50 at pH 7.5, OXA-10 (converted)
# Experimental: Kinetic analyses were performed (at least in triplicate) using either BMG LABTECH PHERAstar or CLARIOstar plate readers. Unless stated otherwise, reactions were in 50 mM phosphate buffer, pH 7.5, containing 0.01% (vol/vol) aqueous Triton X-100, and, in the case of OXA-10, 10 mM sodium bicarbonate. […] Nonlinear regression analysis was performed with Prism 5 (GraphPad Software).
# IC50s were determined as reported ([35]). […] The apparent inhibitory constant Kiapp and the second-order rate constant kinact/K (or k2/K) were determined using reported methods ([60]). SBLs were reacted with the reporter substrate in the presence of varied inhibitor concentrations. Reactions were initiated by SBL addition and immediately monitored for 60 to 120 s (until they plateaued). […] P=Vst+(V0−VS)(1−e^−kobst)/kobs+P0.
# TEM-26 = tested on: TEM-26; design: method as in earlier work; settings: periplasmic extracts; nitrocefin; 5 min pre-incubation; ref 2 (Papp-Wallace et al., 2019); cited from earlier work
# SHV-49 = settings: periplasmic extracts; nitrocefin; 5 min pre-incubation; ref 2 (Papp-Wallace et al., 2019); cited from earlier work
# KPC-2 = tested on: KPC-2; design: method as in earlier work; settings: periplasmic extracts; nitrocefin; 5 min pre-incubation; ref 2 (Papp-Wallace et al., 2019); cited from earlier work
# OXA-48 = tested on: OXA-48; design: method as in earlier work; settings: periplasmic extracts; nitrocefin; 5 min pre-incubation; ref 2 (Papp-Wallace et al., 2019); cited from earlier work
# TEM-30 = tested on: TEM-30; design: method as in earlier work; settings: periplasmic extracts; nitrocefin; 5 min pre-incubation; ref 2 (Papp-Wallace et al., 2019); cited from earlier work
structure (smiles),measurement,setting,value
C[C@]1(Cn2ccnn2)[C@H](C(=O)O)N2C(=O)C[C@H]2S1(=O)=O [tazobactam],IC50,OXA-51,> 100000 nM
same,IC50,SHV-1,26 ± 3 nM
same,Ki,OXA-10 [1],469000 ± 80000 nM
same,"−18-Da species, TEM-116",TEM-116,not observed
same,IC50,AmpC E. cloacae,5100 ± 500 nM
same,IC50,KPC-3,4400 ± 500 nM
same,IC50,SHV (R244S),390 ± 40 nM
same,IC50,OXA-1,8600 ± 900 nM
same,IC50,CTX-M-15,6 ± 1 nM
same,IC50,CMY-2,2500 ± 300 nM
same,IC50,OXA-58,26000 ± 3000 nM
same,IC50,"OXA-10 [2]; with 100 mM added NaHCO3, 0 min pre-incubation",3890 nM
same,IC50,"OXA-10 [2]; with 100 mM added NaHCO3, 10 min pre-incubation",1910 nM
same,IC50,"OXA-10 [2]; with 100 mM added NaHCO3, 30 min pre-incubation",851 nM
same,IC50,"OXA-10 [2]; with 100 mM added NaHCO3, 60 min pre-incubation",562 nM
same,IC50,"OXA-10 [2]; with 100 mM added NaHCO3, 360 min pre-incubation",204 nM
same,IC50,"OXA-10 [2]; without added NaHCO3, 0 min pre-incubation",5010 nM
same,IC50,"OXA-10 [2]; without added NaHCO3, 10 min pre-incubation",1480 nM
same,IC50,"OXA-10 [2]; without added NaHCO3, 30 min pre-incubation",891 nM
same,IC50,"OXA-10 [2]; without added NaHCO3, 60 min pre-incubation",457 nM
same,IC50,"OXA-10 [2]; without added NaHCO3, 360 min pre-incubation",234 nM
same,IC50,TEM-26,23 ± 1 nM
same,IC50,SHV-49,730 ± 80 nM
same,IC50,KPC-2,3700 ± 400 nM
same,IC50,OXA-48,1500 ± 200 nM
